Results published in BindingDB's records for doi:10.1016/0922-4106(95)90072-1 (Cocensys, 1995).
pKi: −log10 of the molar value.

Experiments:
[1] = biological target: Gamma-aminobutyric acid receptor subunit alpha-4 (Homo sapiens, UniProt P48169)
[2] = biological target: Gamma-aminobutyric acid receptor subunit alpha-6 (Homo sapiens, UniProt Q16445)
Sequence of Gamma-aminobutyric acid receptor subunit alpha-6 (Q16445 whole entry): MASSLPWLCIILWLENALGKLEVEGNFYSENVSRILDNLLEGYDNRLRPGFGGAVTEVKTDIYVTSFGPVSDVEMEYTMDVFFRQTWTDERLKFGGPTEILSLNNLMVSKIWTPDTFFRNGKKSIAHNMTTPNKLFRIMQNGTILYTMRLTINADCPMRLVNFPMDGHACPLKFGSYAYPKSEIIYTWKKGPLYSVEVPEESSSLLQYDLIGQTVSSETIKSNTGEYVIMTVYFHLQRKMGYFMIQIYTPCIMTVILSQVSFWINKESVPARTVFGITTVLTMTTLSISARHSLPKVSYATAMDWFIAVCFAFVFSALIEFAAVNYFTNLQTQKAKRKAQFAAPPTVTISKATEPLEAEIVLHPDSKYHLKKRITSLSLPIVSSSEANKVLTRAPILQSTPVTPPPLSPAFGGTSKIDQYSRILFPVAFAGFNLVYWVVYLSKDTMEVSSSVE

Sequence of Gamma-aminobutyric acid receptor subunit alpha-4 (P48169 whole entry): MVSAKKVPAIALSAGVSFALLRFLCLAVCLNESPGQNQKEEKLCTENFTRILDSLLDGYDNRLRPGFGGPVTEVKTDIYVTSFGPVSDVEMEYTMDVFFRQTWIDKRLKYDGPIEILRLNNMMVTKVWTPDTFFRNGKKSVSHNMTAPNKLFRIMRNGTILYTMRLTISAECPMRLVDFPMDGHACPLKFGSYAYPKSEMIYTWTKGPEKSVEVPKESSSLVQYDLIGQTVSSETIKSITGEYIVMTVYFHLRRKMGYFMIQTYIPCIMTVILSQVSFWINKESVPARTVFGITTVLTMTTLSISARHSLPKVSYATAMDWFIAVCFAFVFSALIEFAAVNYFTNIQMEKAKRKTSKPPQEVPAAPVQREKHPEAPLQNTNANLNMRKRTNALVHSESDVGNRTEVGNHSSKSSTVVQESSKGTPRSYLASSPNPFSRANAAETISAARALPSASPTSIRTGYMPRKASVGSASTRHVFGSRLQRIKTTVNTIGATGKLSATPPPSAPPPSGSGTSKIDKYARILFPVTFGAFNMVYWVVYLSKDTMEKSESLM

Compound | pKi [1] | pKi [2]
CC(C)(C)OC(=O)c1ncn2c1C1CCCN1C(=O)c1c(Br)cccc1-2 (stereo not drawn) [8-Bromo-7-oxo-3b,4,5,6-tetrahydro-7H-2,6a,11b-triaza-benzo[g]cyclopenta[e]azulene-3-carboxylic acid tert-butyl ester] | 7.27 | 7.26
COC(=O)c1cc2c(cn1)[nH]c1ccccc12 | 6.51 | 5.49
CNC(=O)c1cc2c(cn1)[nH]c1ccccc12 [CAS_4375] | 6.52 | 5.60
CCOC(=O)c1ncn2c1CN(C)C(=O)c1cc(N=[N+]=[N-])ccc1-2 [RO-154513] |  | 7.93
O=c1c2cnc3ccccc3c2[nH]n1-c1ccc(Cl)cc1 | 7.45 | 6.54
COc1ccc(-n2[nH]c3c(cnc4ccccc43)c2=O)cc1 [2-(4-Methoxy-phenyl)-2,5-dihydro-pyrazolo[4,3-c]quinolin-3-one (CGS 9895)] | 8.17 | 7.36
CCc1c(C(=O)OC)ncc2[nH]c3cc(OC)c(OC)cc3c12 [NSC_104999] | 7.85 | 6.82
